# Data as given in publication PMC5370183, “Kinetics of the LOV domain of ZEITLUPE determine its circadian function in Arabidopsis” (eLife, 2017).
# Columns and labels:
# [1] = target: T1, ZEITLUPE LOV domain (ZTL 29-165, ZTL-S) (Arabidopsis thaliana, UniProt Q94BT6, V48I/G80R); experiment: X-ray crystal structure; format: binding; conditions: dark state (5SVV, 2.1 Å) non-covalent; light state (5SVW, 2.3 Å) covalent C4a adduct with C82
# T1 construct: gene ADO1; LOV domain, residues 29-165, E. coli, 6xHis or GST tag cleaved by TEV; monomer 16 kDa, homodimer 33 kDa (MALS)
# [2] = target: T2, ZEITLUPE LOV domain (ZTL 29-165, ZTL-S) (Arabidopsis thaliana, UniProt Q94BT6); experiment: X-ray crystal structure; format: binding; conditions: dark state, 2.5 Å; FMN non-covalently bound next to C82
# T2 construct: gene ADO1; LOV domain, residues 29-165, E. coli, 6xHis or GST tag cleaved by TEV; monomer 16 kDa, homodimer 33 kDa (MALS)
# T2 sequence (Q94BT6 29-165): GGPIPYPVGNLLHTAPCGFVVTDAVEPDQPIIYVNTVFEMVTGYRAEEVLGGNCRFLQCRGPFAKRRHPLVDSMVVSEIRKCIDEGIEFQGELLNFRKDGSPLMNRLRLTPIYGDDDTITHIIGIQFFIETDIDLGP
# T1 sequence (Q94BT6 29-165 V48I/G80R): as the sequence (Q94BT6 29-165) above, with V20I, G52R counted along it
smiles,measurement,setting,value
Cc1cc2nc3c(=O)[nH]c(=O)nc-3n(C[C@H](O)[C@H](O)[C@H](O)COP(=O)(O)O)c2cc1C [FMN],X-ray crystal structure,[1],Light state crystal structure of V48I:G80R
same,X-ray crystal structure,[2],The helices cradle the photoreactive FMN adjacent to C82 (Eα helix).
